Test results taken from patent US8481597B2, “Use of (-) (3-trihalomethylphenoxy) (4-halophenyl) acetic acid derivatives for treatment of insulin resistance, type 2 diabetes, hyperlipidemia and hyperuricemia” (Metabolex, Inc., priority 1999, dated 2013).
Like-named read-outs stand apart in the source and are kept apart here.

Legend:
[1] = molecular target: cytochrome P450 2C9 (CYP2C9) (Homo sapiens, UniProt P11712); test: Inhibition of CYP2C9 tolbutamide hydroxylation in pooled human liver microsomes (Example 7); details: ratio of apparent IC50
Chain of cytochrome P450 2C9 (CYP2C9) (P11712 whole entry): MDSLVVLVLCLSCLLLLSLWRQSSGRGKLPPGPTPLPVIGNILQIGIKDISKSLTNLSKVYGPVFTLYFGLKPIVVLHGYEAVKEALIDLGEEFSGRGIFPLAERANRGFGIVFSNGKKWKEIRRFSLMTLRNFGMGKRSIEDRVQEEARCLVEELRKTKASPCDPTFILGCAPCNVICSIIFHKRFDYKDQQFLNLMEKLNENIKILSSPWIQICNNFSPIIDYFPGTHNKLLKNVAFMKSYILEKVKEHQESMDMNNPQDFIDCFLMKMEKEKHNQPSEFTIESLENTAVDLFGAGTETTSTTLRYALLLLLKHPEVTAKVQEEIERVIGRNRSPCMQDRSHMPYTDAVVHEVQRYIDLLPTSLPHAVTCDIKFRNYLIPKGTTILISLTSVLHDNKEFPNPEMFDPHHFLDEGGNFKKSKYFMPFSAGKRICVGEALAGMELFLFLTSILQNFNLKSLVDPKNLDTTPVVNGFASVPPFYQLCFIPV
Protocol: Tolbutamide hydroxylation activity (100 μM ^14C-tolbutamide; 1 mM NADPH) was assayed in pooled human liver microsomes (0.6 mg protein/ml)) for 60 minutes at 37° C. both with and without test compounds.

CYP2A6 [2] = molecular target: T1, CYP2A6 (Homo sapiens, UniProt P11509); details: for 7-HC Production: both, human, 20 min
T1 sequence (P11509 1-494): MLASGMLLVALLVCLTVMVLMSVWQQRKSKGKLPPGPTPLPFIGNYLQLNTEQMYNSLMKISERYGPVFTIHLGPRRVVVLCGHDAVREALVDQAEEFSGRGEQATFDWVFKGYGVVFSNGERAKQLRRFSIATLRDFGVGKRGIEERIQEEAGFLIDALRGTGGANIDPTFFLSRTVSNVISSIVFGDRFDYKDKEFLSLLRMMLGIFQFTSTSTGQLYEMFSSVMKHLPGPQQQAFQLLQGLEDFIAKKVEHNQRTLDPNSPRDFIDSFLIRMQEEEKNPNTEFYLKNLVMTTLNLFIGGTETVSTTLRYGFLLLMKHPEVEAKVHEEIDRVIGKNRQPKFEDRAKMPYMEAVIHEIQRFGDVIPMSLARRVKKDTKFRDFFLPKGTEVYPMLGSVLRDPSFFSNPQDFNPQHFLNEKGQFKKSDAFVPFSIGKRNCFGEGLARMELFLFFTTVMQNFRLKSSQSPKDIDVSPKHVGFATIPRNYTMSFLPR

CYP1A2 = molecular target: T2, CYP1A2 (Homo sapiens, UniProt P05177); details: both, 30 min
T2 sequence (P05177 1-516): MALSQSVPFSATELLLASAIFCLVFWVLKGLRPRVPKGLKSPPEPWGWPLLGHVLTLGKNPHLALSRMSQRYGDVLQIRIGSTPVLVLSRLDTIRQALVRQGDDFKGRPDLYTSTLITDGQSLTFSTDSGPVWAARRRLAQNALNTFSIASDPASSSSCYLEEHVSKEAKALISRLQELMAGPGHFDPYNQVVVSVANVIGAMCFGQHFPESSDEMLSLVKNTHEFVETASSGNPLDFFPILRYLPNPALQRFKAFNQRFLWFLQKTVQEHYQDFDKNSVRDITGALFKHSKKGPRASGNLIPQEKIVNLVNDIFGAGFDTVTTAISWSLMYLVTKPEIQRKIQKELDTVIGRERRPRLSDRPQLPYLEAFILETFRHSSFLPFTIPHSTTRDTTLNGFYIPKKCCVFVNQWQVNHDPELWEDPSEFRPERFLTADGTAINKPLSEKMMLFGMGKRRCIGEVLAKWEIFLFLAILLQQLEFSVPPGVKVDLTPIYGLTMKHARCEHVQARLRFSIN

CYP2C9 = CYP2C9 (Homo sapiens, UniProt P11712); details: both, human, 40 min
Chain of CYP2C9 (P11712 whole entry): as the sequence (P11712 whole entry) above

CYP2D6 = CYP2D6 (Homo sapiens, UniProt P10635); details: both, 15 min
Chain of CYP2D6 (P10635 whole entry): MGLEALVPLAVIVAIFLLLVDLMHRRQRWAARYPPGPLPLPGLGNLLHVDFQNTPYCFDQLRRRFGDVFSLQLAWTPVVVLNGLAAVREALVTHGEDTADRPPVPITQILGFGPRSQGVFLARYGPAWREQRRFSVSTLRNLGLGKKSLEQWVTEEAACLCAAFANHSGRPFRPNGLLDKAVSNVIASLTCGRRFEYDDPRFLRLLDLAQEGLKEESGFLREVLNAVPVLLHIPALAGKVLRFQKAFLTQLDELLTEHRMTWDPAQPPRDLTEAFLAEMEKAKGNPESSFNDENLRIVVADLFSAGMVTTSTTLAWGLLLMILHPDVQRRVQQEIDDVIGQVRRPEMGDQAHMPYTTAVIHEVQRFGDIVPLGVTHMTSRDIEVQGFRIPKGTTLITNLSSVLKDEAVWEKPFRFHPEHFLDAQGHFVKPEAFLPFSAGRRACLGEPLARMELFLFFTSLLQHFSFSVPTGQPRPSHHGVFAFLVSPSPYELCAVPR

CYP3A4 = CYP3A4 (Homo sapiens, UniProt P08684); details: both, 10 min
Chain of CYP3A4 (P08684 whole entry): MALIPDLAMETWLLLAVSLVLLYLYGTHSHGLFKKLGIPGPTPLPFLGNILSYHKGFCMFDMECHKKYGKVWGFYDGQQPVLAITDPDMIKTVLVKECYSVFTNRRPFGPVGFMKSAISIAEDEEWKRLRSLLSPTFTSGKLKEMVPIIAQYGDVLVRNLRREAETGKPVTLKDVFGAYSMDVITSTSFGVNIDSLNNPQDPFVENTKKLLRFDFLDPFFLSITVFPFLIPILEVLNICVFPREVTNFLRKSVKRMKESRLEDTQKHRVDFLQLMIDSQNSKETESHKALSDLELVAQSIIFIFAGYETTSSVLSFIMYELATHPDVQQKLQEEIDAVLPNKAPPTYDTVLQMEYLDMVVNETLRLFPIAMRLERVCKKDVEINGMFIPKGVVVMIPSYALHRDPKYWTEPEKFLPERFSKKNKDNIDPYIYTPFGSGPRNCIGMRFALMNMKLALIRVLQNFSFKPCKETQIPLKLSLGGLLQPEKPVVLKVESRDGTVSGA

C57BL/6J ob/ob mice = test: Glucose lowering of (±) and (−) halofenate analogs in ob/ob mice (Example 12); format: in vivo
CYP2A6 [3] = molecular target: T1, CYP2A6; test: Cytochrome P450 isoform inhibition, coumarin, human hepatic microsomes (Example 18); details: TRAN 250 μM; 1 μM coumarin; VC 32.0 ± 1.4

**Q.** Which “fold less potent than (+) halofenic acid in inhibiting CYP2C9” value [1] does the source give for O=C(O)C(Oc1cccc(C(F)(F)F)c1)c1ccc(Cl)cc1 (single isomer, unassigned; (-)) [(−) halofenic acid, (−) 4-chlorophenyl-(3-trifluoromethylphenoxy)-acetic acid] here?
**A.** ~20 fold

**Q.** And the “7-HC Production” value (CYP2A6 [2]; 0.33 μM)?
**A.** 33.3 ± 0.7 pmol/mg protein/min

**Q.** And the “7-HC Production” value (CYP2A6 [2]; 1 μM)?
**A.** 32.6 ± 0.7 pmol/mg protein/min

**Q.** And the “7-HC Production” value (CYP2A6 [2]; 3.3 μM)?
**A.** 32.1 ± 0.7 pmol/mg protein/min

**Q.** What about the “7-HC Production” value (CYP2A6 [2]; 10 μM) of the same compound?
**A.** 33.1 ± 0.7 pmol/mg protein/min

**Q.** And the “7-HC Production” value (CYP2A6 [2]; 33.3 μM)?
**A.** 32.3 ± 0.7 pmol/mg protein/min

**Q.** What about the “AC Production” value (CYP1A2; 0.33 μM) of the same compound?
**A.** 116 ± 2 pmol/mg protein/min

**Q.** And the “AC Production” value (CYP1A2; 1 μM)?
**A.** 118 ± 2 pmol/mg protein/min

**Q.** And the “AC Production” value (CYP1A2; 3.3 μM)?
**A.** 119 ± 2 pmol/mg protein/min

**Q.** And the “AC Production” value (CYP1A2; 10 μM)?
**A.** 119 ± 2 pmol/mg protein/min

**Q.** What about the “AC Production” value (CYP1A2; 33.3 μM) of the same compound?
**A.** 119 ± 2 pmol/mg protein/min

**Q.** What about the “4-OH TB Production” value (CYP2C9; 0.33 μM) of the same compound?
**A.** 41.0 ± 0.9 pmol/mg protein/min

**Q.** And the “4-OH TB Production” value (CYP2C9; 1 μM)?
**A.** 38.6 ± 0.5 pmol/mg protein/min

**Q.** What about the “4-OH TB Production” value (CYP2C9; 3.3 μM) of the same compound?
**A.** 34.2 ± 0.2 pmol/mg protein/min

**Q.** And the “4-OH TB Production” value (CYP2C9; 10 μM)?
**A.** 22.7 ± 0.6 pmol/mg protein/min

**Q.** And the “4-OH TB Production” value (CYP2C9; 33.3 μM)?
**A.** 12.7 ± 0.2 pmol/mg protein/min

**Q.** And the IC50 (CYP2C9; microsomes)?
**A.** ~11.3 µM

**Q.** And the “DEX Production” value (CYP2D6; 0.33 μM)?
**A.** 107 ± 4 pmol/mg protein/min

**Q.** What about the “DEX Production” value (CYP2D6; 1 μM) of the same compound?
**A.** 110 ± 2 pmol/mg protein/min

**Q.** What about the “DEX Production” value (CYP2D6; 3.3 μM) of the same compound?
**A.** 104 ± 3 pmol/mg protein/min

**Q.** And the “DEX Production” value (CYP2D6; 10 μM)?
**A.** 107 ± 1 pmol/mg protein/min

**Q.** And the “DEX Production” value (CYP2D6; 33.3 μM)?
**A.** 106 ± 4 pmol/mg protein/min

**Q.** And the “6β-OHT Production” value (CYP3A4; 0.33 μM)?
**A.** 1816 ± 12 pmol/mg protein/min

**Q.** And the “6β-OHT Production” value (CYP3A4; 1 μM)?
**A.** 1851 ± 14 pmol/mg protein/min

**Q.** And the “6β-OHT Production” value (CYP3A4; 3.3 μM)?
**A.** 1810 ± 3 pmol/mg protein/min

**Q.** And the “6β-OHT Production” value (CYP3A4; 10 μM)?
**A.** 1819 ± 4 pmol/mg protein/min

**Q.** And the “6β-OHT Production” value (CYP3A4; 33.3 μM)?
**A.** 1816 ± 6 pmol/mg protein/min

**Q.** What about the “time points with significantly lowered plasma glucose concentrations” value (C57BL/6J ob/ob mice; 125 mg/kg oral once a day) of the same compound?
**A.** 6 h

**Q.** And the “6 hours Glucose” value (C57BL/6J ob/ob mice; 125 mg/kg oral once a day, 6 hours after first dose)?
**A.** 163.8 ± 11.8 mg/dL

**Q.** What about the “Predose Glucose” value (C57BL/6J ob/ob mice; baseline before dosing, group later given 125 mg/kg oral once a day) of the same compound?
**A.** 312.9 ± 17.7 mg/dL

**Q.** Which results are given for N[C@@H]1C[C@H]1c1ccccc1 (racemic) [TRAN, tranylcypromine, reference compound]?
**A.** % Inhibition (Coumarin, CYP2A6) (CYP2A6 [2]; microsomes): 100%; 7-HC Production (CYP2A6 [3]): 0.00 ± 0.00 pmol/mg protein/min
